Test results: patent publication US20030232813A1, “Novel amino substituted pyrimidinone derivatives” (ORCHID CHEMICALS & PHARMACEUTICALS LIMITED, priority 2002, published 2003)

What was measured:
IL-6 = IL-6 production from LPS-stimulated human monocytes (ELISA); type: cell-based; conditions: Monocyte; for inhibition at 1 µM: Conc. 1 μM
Experimental: (§1) This assay determines the effect of test compounds on the production of IL-6 from human monocytes. Compounds are tested for their ability to downregulate the production of IL-6 in activated monocytes. Test compounds were incubated for three, six and twenty four hours with human monocytes. Lipopolysaccharide was used to stimulate the monocytes. The level of Interleukin-6 is quantitated using Enzyme-Linked Immunosorbent assay performed in a 96 well format.

COX-2 = biological target: T1, COX-2 (Homo sapiens, UniProt P35354); assay: Human whole blood assay, COX-2 inhibition (LPS-induced PGE2); type: cell-based; conditions: 24 h
T1 construct: Fresh blood was collected in tubes containing potassium EDTA by vein puncture from male volunteers; endogenous in cells; host or cells: fresh human whole blood from male volunteers, aspirin-pretreated, LPS-stimulated for 24 h
T1 sequence (P35354 18-604): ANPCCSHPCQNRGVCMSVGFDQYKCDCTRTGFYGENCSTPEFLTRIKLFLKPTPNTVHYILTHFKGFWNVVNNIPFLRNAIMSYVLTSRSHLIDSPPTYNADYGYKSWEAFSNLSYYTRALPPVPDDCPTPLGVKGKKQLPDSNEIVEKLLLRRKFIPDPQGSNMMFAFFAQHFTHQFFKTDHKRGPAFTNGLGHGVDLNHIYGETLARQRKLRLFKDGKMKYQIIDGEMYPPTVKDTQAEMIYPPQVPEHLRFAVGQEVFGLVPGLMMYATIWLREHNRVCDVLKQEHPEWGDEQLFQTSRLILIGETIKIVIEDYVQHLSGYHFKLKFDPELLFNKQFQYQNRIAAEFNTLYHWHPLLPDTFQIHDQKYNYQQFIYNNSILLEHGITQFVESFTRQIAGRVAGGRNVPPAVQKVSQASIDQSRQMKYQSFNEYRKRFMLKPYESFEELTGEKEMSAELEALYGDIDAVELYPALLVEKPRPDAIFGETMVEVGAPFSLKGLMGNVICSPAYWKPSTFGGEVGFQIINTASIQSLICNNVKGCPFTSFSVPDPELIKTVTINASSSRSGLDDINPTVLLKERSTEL
Experimental: In vitro Evaluation of Cycloxygenase-2 (COX-2) Inhibition Activity
The COX-2 inhibition activity of the compounds illustrated in the examples was determined by the following method.
Human whole blood provides a protein and cell rich milieu appropriate for the study of biochemical efficacy of anti-inflammatory compounds such as selective COX-2 inhibitors. […] This is correlating with the observation that COX-2 inhibitors have no effect on prostaglandin E2 (PGE2) production in normal blood. These inhibitors are active only after incubation of human blood with lipopolysaccharide (LPS), which induces COX-2 production in the blood.
Fresh blood was collected in tubes containing potassium EDTA by vein puncture from male volunteers. The subjects should have no apparent inflammatory conditions and not taken NSAIDs for atleast 7 days prior to blood collection. Blood was treated with aspirin in vitro (10 μg/ml, at time zero) to inactivate COX-1, and then with LPS (10 μg/ml) along with test agents or vehicle. The blood was incubated for 24 h at 37° C., after which the tubes were centrifuged, the plasma was separated and stored at −80° C. (J Pharmacol Exp Ther 271, 1705, 1994; Proc Natl Acad Sci USA 96, 7563, 1999). The plasma was assayed for PGE2 using Cayman ELISA kit as per the procedure outlined by the manufacturer (Cayman Chemicals, Ann Arbor, USA). […]

Male Wistar rats [1] = assay: Rat carrageenan paw edema test; type: in vivo; conditions: oral
Experimental: Rat Carrageenan Paw Edema Test
The carrageenan paw edema test was performed as described by Winter et al (Proc. Soc. Exp Biol Me., 111, 544, 1962). Male Wistar rats were selected and the body weight were equivalent within each group. The rats were fasted for eighteen hours with free access to water. The rats were dosed orally with the test compound suspended in vehicle containing 0.5% Methycellulose. The control rats were administered the vehicle alone. After one hour the rats were injected with 0.1 ml of 1% Carrageenan solution in 0.9% saline into the sub plantar surface of the right hind paw. Paw thickness was measured using vernier calipers at 0 time, after 2 and 3 hours. The average of foot swelling in drug treated animals was compared with that of control animals. Anti-inflammatory activity was expressed as the percentage inhibition of edema compared with control group [Arzneim-Forsch/Drug Res 43(I), 1, 44-50, 1993; Otterness and Bliven, Laboratory Models for Testing NSAIDs, In Non-Steroidal Anti-Inflammatory Drugs, (J. Lombardino, ed. 1985)]. The data of the selected compounds in this invention are summarized in Table I. In order to evaluate their role on the ulcer formation, the animals were sacrificed by cervical dislocation, the stomach removed and flushed with 1% formalin (10 ml). The stomach was opened along the greater curvature. […]

Male Wistar rats [2] = assay: Gastro-ulcerogenic potential (ulcer formation in the rats of the paw edema test); type: in vivo, rat; conditions: oral dosing
Experimental: The carrageenan paw edema test was performed as described by Winter et al (Proc. Soc. Exp Biol Me., 111, 544, 1962). Male Wistar rats were selected and the body weight were equivalent within each group. The rats were fasted for eighteen hours with free access to water. The rats were dosed orally with the test compound suspended in vehicle containing 0.5% Methycellulose. The control rats were administered the vehicle alone. After one hour the rats were injected with 0.1 ml of 1% Carrageenan solution in 0.9% saline into the sub plantar surface of the right hind paw. Paw thickness was measured using vernier calipers at 0 time, after 2 and 3 hours. The average of foot swelling in drug treated animals was compared with that of control animals. Anti-inflammatory activity was expressed as the percentage inhibition of edema compared with control group [Arzneim-Forsch/Drug Res 43(I), 1, 44-50, 1993; Otterness and Bliven, Laboratory Models for Testing NSAIDs, In Non-Steroidal Anti-Inflammatory Drugs, (J. Lombardino, ed. 1985)]. The data of the selected compounds in this invention are summarized in Table I. In order to evaluate their role on the ulcer formation, the animals were sacrificed by cervical dislocation, the stomach removed and flushed with 1% formalin (10 ml). The stomach was opened along the greater curvature. The haemorrhagic puncta and sulci were identified macroscopically.

TNF-α = TNF-α production from LPS-stimulated human monocytes (ELISA); type: cell-based; conditions: Monocyte; for inhibition at 10 µM: Conc. 10 μM
Experimental: Tumor Necrosis Factor Alpha (TNF-α)
as §1, with “TNF-α” for “IL-6”, “were” for “are”, “TNF-α was” for “Interleukin-6 is”

melting point | SMILES | inhibition at 1 µM (IL-6) | further results
202 to 206 °C | Nc1cc(=O)nc(Nc2ccccc2)n1-c1ccccc1 [Example 1, 6-amino-2-phenylamino-1-phenyl-1H-pyrimidin-4-one] | – | inhibition at 0.25 µM (IL-6; Conc. 0.25 μM): 46.6%; inhibition at 10 µM (COX-2; Conc. 10 μM): 75.8%; Rat Paw Edema model % Inhibition (10 mg/kg body weight) (Male Wistar rats [1]): 10%; Gastro-ulcerogenic potential (% incidence of ulceration) (Male Wistar rats [2]): 24.6%
213 to 216 °C | COc1ccc(Nc2nc(=O)cc(N)n2-c2ccccc2)cc1 [Example 2, 6-amino-2-(4-methoxy-phenylamino)-1-phenyl-1H-pyrimidin-4-one] | 65.1% | –
111 to 113 °C | CCOc1ccc(Nc2nc(=O)cc(N)n2-c2ccccc2)cc1 [Example 3, 6-amino-2-(4-ethoxy-phenylamino)-1-phenyl-1H-pyrimidin-4-one] | 82.3% | inhibition at 1 µM (TNF-α; Conc. 1 μM): 58.3%
133 to 135 °C | CSc1ccc(Nc2nc(=O)cc(N)n2-c2ccccc2)cc1 [Example 4, 6-amino-2-(4-methylthio-phenylamino)-1-phenyl-1H-pyrimidin-4-one] | 56.7% | inhibition at 10 µM (TNF-α): 43.5%
207 to 210 °C | Cc1ccc(Nc2nc(=O)cc(N)n2-c2ccccc2)cc1 [Example 5, 6-amino-2-(4methyl-phenylamino)-1-phenyl-1H-pyrimidin-4-one] | – | –
233 to 237 °C | Nc1cc(=O)nc(Nc2ccc(Cl)cc2)n1-c1ccccc1 [Example 6, 6-amino-2-(4-chloro-phenylamino)-1-phenyl-1H-pyrimidin-4-one] | 44.6% | –
225 to 227 °C | Nc1cc(=O)nc(Nc2ccc(F)cc2)n1-c1ccccc1 [Example 7, 6-amino-2-(4-fluoro-phenylamino)-1-phenyl-1H-pyrimidin-4-one] | – | –
231 to 234 °C | CSc1ccc(Nc2nc(=O)cc(N)n2-c2ccc(C)cc2)cc1 [Example 8, 6-amino-1-(4-methylphenyl)-2-(4-methylthio-phenylamino)-1H-pyrimidin-4-one] | – | –
180 to 190 °C | COc1ccc(-n2c(N)cc(=O)nc2Nc2ccccc2)cc1 [Example 9, 6-amino-1-(4-methoxyphenyl)-2-phenylamino-1H-pyrimidin-4-one] | 75.4% | inhibition at 10 µM (TNF-α): 45.2%
114 to 118 °C | CCOc1ccc(-n2c(N)cc(=O)nc2Nc2ccccc2)cc1 [Example 10, 6-amino-1-(4-ethoxyphenyl)-2-phenylamino-1H-pyrimidin-4-one] | – | inhibition at 1 µM (COX-2; Conc. 1 μM): 33.3%
216 to 222 °C | Nc1cc(=O)nc(Nc2ccccc2)n1-c1ccc(Cl)cc1 [Example 11, 6-amino-1-(4-chlorophenyl)-2-phenylamino-1H-pyrimidin-4-one] | 59.5% | –
211 to 213 °C | Nc1cc(=O)nc(Nc2ccccc2)n1-c1ccc(Br)cc1 [Example 12, 6-amino-1-(4-bromophenyl)-2-phenylamino-1H-pyrimidin-4-one] | – | –
